Source: patent US20130189764A1, “SELECTIVE GROWTH MEDIA” (Oxide Limited, priority 2000, published 2013)
Values after ≈ are worked out from the molar mass of the structure shown.

Key:
[1] = tested on: Bacillus subtilis strain OCC 214; assay: growth on nutrient agar streak plates, pure culture (Example 1); assay type: cell-based; details: B. subtilis OCC214, nutrient agar, 0-10 mM tested
Text: In example 1 the sensitivity of Bacillus subtilis strain OCC 214 to alaphosphin or AEP was investigated. […] The organism is known to be LALA-ve, so the observations agree with the known characteristics of the organism.

[2] = tested on: Klebsiella pneumoniae CMCC 3077; assay: growth on nutrient agar streak plates, pure culture (Example 4); assay type: cell-based; details: K. pneumoniae CMCC 3077, nutrient agar, 0-10 mM tested
Text: Example 1 was repeated using Klebsiella pneumoniae CMCC 3077 as the test organism. The results are shown in FIG. 5, and are qualitatively similar to those obtained in example 2.

[3] = tested on: K. pneumoniae CMCC 3077; assay: growth on nutrient agar, mixed culture with S. aureus (Example 6); assay type: cell-based, Klebsiella pneumoniae; details: K. pneumoniae in mixed culture with S. aureus
Text: (§1) Example 1 was repeated, this time using a mixed culture of K. pneumoniae CMCC 3077 and S. aureus OCC 102. The results for growth in the presence of AEP or alaphosphin are shown in FIGS. 7 and 8 respectively: empty columns represent growth of S. aureus, the shaded columns represent growth of K. pneumoniae. […] Accordingly, there is a considerable alaphosphin concentration range over which S. aureus will readily grow whilst K. pneumoniae will be inhibited. Even if K. pneumoniae cells lyse due to the toxic effect of AEP released intracellularly, the AEP is not toxic for S. aureus at the concentrations involved.

[4] = tested on: S. aureus OCC 102; assay: growth on nutrient agar, mixed culture with K. pneumoniae (Example 6); assay type: cell-based, Staphylococcus aureus; details: S. aureus in mixed culture with K. pneumoniae
Text: as §1

[5] = tested on: B. subtilis OCC 214; assay: growth on nutrient agar, mixed culture with K. pneumoniae (Example 8); assay type: cell-based, Bacillus subtilis
Text: Example 6 was repeated, this time using a mixed culture of B. subtilis OCC 214 and K. pneumoniae CMCC 3077, in the presence of AEP or alaphosphin. The empty columns show the growth of B. subtilis, the shaded columns denote growth of K. pneumoniae.

[6] = tested on: strains of Escherichia coli; assay: Bioscreen growth in Lab-Lemco broth (Example 11), E. coli strains; assay type: cell-based; details: 64 μg/ml, Lab-Lemco broth pH 5.7, 37° C., four E. coli strains
Description: Thus, Ala-AEP was dissolved in deionised water (7.0 mg/ml), filter sterilised, and an amount of the solution added to autoclaved Lab-Lemco broth (20 g/l; pH 5.7) to give a concentration of 70 μg/ml. Volumes (300 μl) of this solution were then pipetted into the wells of Bioscreen microtitre plates and 30 μl quantities of 1 in 10,000 dilutions of overnight cultures added (reducing the final alaphosphin concentration to 64 μg/m). Plates were then covered, incubated at 37° C., and the opacity of the organism suspensions measured using a Bioscreen instrument. Growth of the Salmonella strains was unaffected whereas the E. coli strains were all inhibited.
Typical results are shown in FIG. 16, which is a graph of Optical Density against time (hours). Growth of S. indiana OCC 2412 and S. worthington OCC 634 is denoted by crosses and circles respectively.

[7] = tested on: Salmonella typhimurium OCC 722; assay: Bioscreen growth, comparison with conventional selective agents (Example 12); assay type: cell-based; details: 60 μg/ml alaphosphin, Lab-Lemco broth + phosphate buffer pH 6.0
Description: (§2) The following is an example to illustrate the beneficial lower toxic properties of the new selective agents towards the target microorganism, in this case Salmonella. Two selective agents, cefsulodin and novobiocin, as used conventionally in Salmonella isolation from foods (Humphrey and Whitehead, 1992 British Poultry Science 33, 761-768) were compared with alaphosphin. All were dissolved in deionised water, filter sterilised, and an amount of the solution added to either autoclaved Lab-Lemco broth+phosphate buffer (20 g/l; pH 6.0; ala-AEP) or Buffered Peptone Water (pH 6.8; cefsulodin and novobiocin) to give final concentrations of 66, 16.5 and 11 μg/ml respectively. [The different pH values reflect the different pH optima of the selective agents (ala-AEP was also subsequently used in BPW at pH 6.8 and similar results obtained)]. Volumes (300 μl) were then pipetted into the wells of Bioscreen microtitre plates and 30 μl quantities of 1 in 10,000 dilutions of overnight cultures of E. coli OCC 2129 and Salmonella typhimurium OCC 722, added. Plates were then covered, incubated at 37° C., and the opacity of the organism suspensions measured using a Bioscreen instrument.
(§3) Typical results are shown in FIGS. 17-19, which are graphs of optical density against time for S. typhimurium (circles) and E. coli (squares) in the presence (empty symbols) or absence (filled symbols) of 15 μg/ml cefsulodin (FIG. 17), 10 μg/ml novobiocin (FIG. 18) or 60 μg/ml alaphosphin (FIG. 19).

[8] = tested on: E. coli OCC 2129; assay: as above; assay type: cell-based, Escherichia coli; details: 60 μg/ml alaphosphin
Description: as §2, §3

[9] = tested on: E. coli strains; assay: inhibition of E. coli strains on DMSal agar for selective growth of Salmonella (Example 16); assay type: cell-based, Escherichia coli; details: DMSal agar
Description: (§4) The experiments were conducted as follows: nutrient agar medium was autoclaved and, on cooling (but prior to setting) filter-sterilised alaphosphin or AEP were incorporated at final concentrations of 1 mM, 2 mM, 5 mM and 10 mM, and the medium used to pour plates. Control plates were prepared using nutrient agar without alaphosphin or AEP. A single colony of the organism under test was inoculated in 10 ml of nutrient broth and incubated (without agitation) at 37° C. for 4 hours.
(§5) Trp-AEP was compared to alaphosphin (Ala-AEP) for selective growth of Salmonella strains on DMSal agar.

[10] = tested on: Klebsiella aerogenes 323; assay: MIC / growth in DMSal (Example 16); assay type: cell-based; details: Klebsiella aerogenes 323, DMSal, 1.5 μg/ml
Description: as §4, §5

[11] = tested on: Salmonella arizonae 1200; assay: MIC / growth in DMSal (Example 16); assay type: cell-based; details: Salmonella arizonae 1200, DMSal, 1.5 μg/ml
Description: as §4, §5

[12] = tested on: Salmonella enteriditis 723; assay: MIC / growth in DMSal (Example 16); assay type: cell-based; details: Salmonella enteriditis 723, DMSal, 1.5 μg/ml
Description: as §4, §5

[13] = tested on: Salmonella virchow 703; assay: MIC / growth in DMSal (Example 16); assay type: cell-based; details: Salmonella virchow 703, DMSal, 1.5 μg/ml
Description: as §4, §5

[14] = tested on: Citrobacter freundii 370; assay: MIC in DMSal medium (Example 17); assay type: cell-based; details: Citrobacter freundii, 370
[15] = tested on: E. coli 607; assay: MIC in DMSal medium (Example 17); assay type: cell-based; details: Escherichia coli, 607
[16] = tested on: Enterococcus faecalis 501; assay: MIC in DMSal medium (Example 17); assay type: cell-based; details: Enterococcus faecalis, 501
[17] = tested on: Enterococcus faecium 220; assay: MIC in DMSal medium (Example 17); assay type: cell-based; details: Enterococcus faecium, 220

## C[C@H](N)C(=O)N[C@@H](C)P(=O)(O)O [alaphosphin, L-alanyl-L-1-aminoethylphosphonic acid]
[1]
  sensitivity of growth (in words): completely insensitive
[2]
  concentration at which growth is completely inhibited: ≥ 2 mM
[3]
  concentration at which growth is completely inhibited: above 1 mM
[4]
  concentration at which growth is inhibited: 10 mM
[5]
  sensitivity of growth (in words): insensitive
[6]
  growth (optical density) in presence of the agent: all inhibited
[7]
  effect on growth of S. typhimurium: no significant difference
[8]
  growth of E. coli: completely inhibited
[9]
  concentration needed to inhibit the growth of E. coli strains: 1.5 µg/mL
[10]
  growth with Ala-AEP (1.5 μg/ml): Growth
[11]
  growth with Ala-AEP (1.5 μg/ml): Growth
[12]
  growth with Ala-AEP (1.5 μg/ml): Growth
[13]
  growth with Ala-AEP (1.5 μg/ml): Growth
[14]
  MIC: 1 µg/mL (≈ 5.1 µM)
[15]
  MIC: 0.1 µg/mL (≈ 0.51 µM)
[16]
  MIC: 10 µg/mL (≈ 51 µM)
[17]
  MIC: > 50 µg/mL
